Legend:
[1] = tested on: A-431 (human squamous carcinoma) cells; test: Short term cytotoxicity, MTT assay; type: cell-based; conditions: 1 h treatment then 72 h culture, read-out: cytotoxicity expressed in IC50, A-431
Protocol: (§1) For the short term cytotoxicity studies the A-431 (human squamous carcinoma) and U-87 (human primary glioblastoma) cells were cultured in RPMI-1640 medium supplemented with 10% FCS (fetal calf serum, Sigma Ltd.), 2 mM L-glutamine, and […] gentamicin. Cell cultures were maintained at 37° C. in a humidified atmosphere with 5% CO2. The cells were grown to confluency and were distributed into 96-well plate with initial cell number of 5.0×10^3 per well. After 24 h incubation at 37° C., the cells were treated with the compounds in 200 μL final volume containing 1.0 v/v % DMSO. The cells were incubated with the compounds at 10^−4-10^2 μM concentration range for 1 h. Control cells were treated with serum free medium (RPMI-1640) only or with DMSO (c=1.0 v/v %) at 37° C. for 1 h. After incubation the cells were washed twice with serum free (RPMI-1640) medium. To determine the in vitro cytostatic effect, the cells were cultured for a further 72 h in 10% serum containing medium. MTT-solution ([…], 2 mg/mL, final concentration: 0.37 mg/mL) was added to each well. The respiratory chain [26, 27] and other electron transport systems reduce MTT and thereby form non-water-soluble violet formazane crystals within the cell. […] After 4 h of incubation the cells were centrifuged for 5 min (900 g) and the supernatant was removed. The obtained formazane crystals were dissolved in DMSO ([…]) and optical density (OD) of the samples was measured at λ=540 and 620 nm, respectively, using ELISA Reader (iEMS Reader, Labsystems, Finland). OD620 values were subtracted from OD540 values. The percent of cytostasis was calculated by using the following equation: Cytostatic effect (%)=[1−(ODtreated/ODcontrol)]×100 Values ODtreated and ODcontrol correspond to the optical densities of the treated and the control cells, respectively. In each case two independent experiments were carried out with 4 parallel measurements. […] The curves were defined using Microcal™ Origin1 (version 7.5) software: cytostasis was plotted as a function of concentration, fitted to a sigmoidal curve, and based on this curve, the half maximal inhibitory concentration (IC50) value was determined.

[2] = tested on: U-87 (human primary glioblastoma) cells; test: Short term cytotoxicity, MTT assay; type: cell-based; conditions: 1 h treatment then 72 h culture, read-out: cytotoxicity expressed in IC50, U-87
Protocol: as §1

[3] = tested on: MDA-MB-231 human triple-negative breast cancer xenografts; test: Antitumoral effect on subcutaneous MDA-MB-231 tumor xenografts in SCID mice (Example 23); type: in vivo; conditions: intraperitoneal
Protocol: MDA-MB-231 human triple-negative breast cancer xenografts were formed by subcutaneous inoculation of tumor cells into the back of the immunodeficient (SCID) mice. The investigated materials were injected into the animals intraperitoneal every two-three days for 3 weeks.
Forty SCID mice were included in the experiment. Each animal group was kept in separate cage during the experiments. On each cage, there was an identification card with birth date, the date of tumor cell injection, number and gender of animals. The injection of each substance was written on the identification card. Eight animals per substance were used and identified by ear cutting.
MDA-MB-231 human triple-negative breast cancer cells were grown in RPMI-1640 Medium (Sigma Chemical Co., St. Louis, MO), supplemented with 10% fetal bovine serum (Sigma) and 1% penicillin-streptomycin (Sigma) at 37° C. in a humidified atmosphere of 5% CO2. […]
During the experiment weight of the animals and size of the tumors were recorded.
Tumor volume was determined three times a week during the experiment.
Anti-tumor effect of compounds was evaluated also measuring tumor weight in each group after termination of experiment (FIGS. 64 and 65).

Row | SMILES | IC50 [1] [µM] | IC50 [2] [µM] | tumor volume / tumor growth ([3]; 3 weeks, vs control (Student's t-test)) | tumor weight after termination ([3]; after termination of experiment, vs control)
1 | O=C1C2=C(CCN(Cc3cccc(F)c3)C2)N2CCN=C2N1Cc1ccc(C(F)(F)F)cc1 [I/3, reference compound] | < 0.2 | 4.16 | – | –
2 | O=C1C2=C(CCN(Cc3cc(F)cc(F)c3)C2)N2CCN=C2N1Cc1ccc(Cl)cc1 [I/124, 4-(4-Chlorobenzyl)-7-(3,5-difluorobenzyl)-2,4,6,7,8,9-hexahydroimidazo[1,2-a]pyrido[3,4-e]pyrimidin-5(1H)-one] | – | – | significant | highest, significant inhibition
